Source: PMC8907193, “The YΦ motif defines the structure-activity relationships of human 20S proteasome activators” (Nature Communications, 2022)
Square brackets hold non-standard residues; d marks the D form. Ends that are not written are not given here. Peptide text beside a SMILES is read from it. Cha = N[C@@H](CC1CCCCC1)C(=O)O

Tests used:
[1] = system: T1, human 20S proteasome (h20S); experiment: h20S stimulation, hydrolysis of suc-LLVY-amc (chymotryptic-like activity); format: biochemical
T1 construct: purchased Proteasome Center
Description: Human 20S (h20S) (final concentration of 4 nM) was incubated in the presence or absence of activators (peptides, 0.2–600 μM; MBP 0.2–400 μM; PA26, 0.04–3500 nM) at ambient temperature for 5 min. Substrate (suc-LLVY-amc, 10 μM; boc-LRR-amc, 20 μM; or FAM-LFP, 100 nM) was added immediately before reading. Fluorescence intensity of suc-LLVY-amc and boc-LRR-amc (excitation, 355 nm; emission, 440 nm; cutoff 435 nm) or FAM-LFP (excitation, 490 nm; emission, 520 nm; cutoff, 515 nm) were monitored at 30 to 60 s intervals for 30 min at 25 °C using a Spectramax M5 microplate reader (Molecular Devices; SoftMax Pro 6.5.1). The hydrolysis rate was calculated from the slope of the curve between 100 and 500 s (500 and 1000 s for boc-LRR-amc) in arbitrary units (RFU per s).
Data were processed and fit in GraphPad Prism 8.1.2. The baseline hydrolysis was normalized to the total mean activity for the lowest concentration of every activator assayed in a given plate and the maximal hydrolysis was normalized as reported. The normalized activity was plotted relative to log10(activator). Data was fit to the model for log(agonist) versus response (variable slope). In Eq. (1), X = log[activator, μM] except for PA26-based activators, which are in nanomolar.1 Y=Bottom+(Top−Bottom)/1+10^((logEC50−X)×Hillslope)

[2] = Visual inspection of 10 mM DMSO stocks (solubility); format: physicochemical; conditions: 10 mM in DMSO (Suppl Fig 1e)

## CC(C)C[C@H](NC(=O)[C@@H](N)CC(N)=O)C(=O)N[C@@H](CO)C(=O)N[C@@H](Cc1ccc(O)cc1)C(=O)N[C@@H](CC1CCCCC1)C(=O)N[C@H](C(=O)O)[C@@H](C)O [Opt5^Y4] (H-NLSY[Cha]T-OH; N-terminus and C-terminus assumed)
[1]; ratio of EC50
  improvement of potency relative to Opt5^YY: ~ 2 fold
[1]; suc-LLVY-amc turnover
  stimulation of h20S, result in words: completely inactivated

## ANLQYFA [hRpt5-YP2F]
[2]
  solubility of DMSO stock, visual: insoluble
